Laboratory results reported in patent US9156845B2, “4-(substituted amino)-7H-pyrrolo[2,3-d] pyrimidines as LRRK2 inhibitors” (Pfizer Inc., priority 2012, dated 2015).
Read-outs that look alike come from different tables or passages of the source.

Assays:
Assay in all cases: ActivX kinase probe assay (human PBMC)
Format in all cases: binding
SGK3 = SGK3 (Homo sapiens (Human), UniProt Q96BR1); conditions: SGK3, read-out: percent inhibition
PYK2 = PYK2 (Homo sapiens (Human), UniProt Q14289); conditions: PYK2, read-out: percent inhibition
MAP2K4 = MAP2K4 (Homo sapiens (Human), UniProt P45985); conditions: MAP2K4, read-out: percent inhibition
AMPKa1 = AMPKa1 (Homo sapiens (Human), UniProt Q13131); conditions: AMPKa1, read-out: percent inhibition
p70S6K = p70S6K (Homo sapiens (Human), UniProt P23443); conditions: p70S6K, read-out: percent inhibition
ABL, ARG = tested on: ABL, ARG
TBK1 = TBK1 (Homo sapiens (Human), UniProt Q9UHD2); conditions: TBK1, read-out: percent inhibition
PAN3 = PAN3 (Homo sapiens (Human), UniProt Q58A45); conditions: PAN3, read-out: percent inhibition
IRAK3 = IRAK3 (Homo sapiens (Human), UniProt Q9Y616); conditions: IRAK3, read-out: percent inhibition
FYN = FYN (Homo sapiens (Human), UniProt P06241); conditions: FYN, read-out: percent inhibition
NEK9 = NEK9 (Homo sapiens (Human), UniProt Q8TD19); conditions: NEK9, read-out: percent inhibition
SYK = SYK (Homo sapiens (Human), UniProt P43405); conditions: SYK, read-out: percent inhibition
IRAK4 = IRAK4 (Homo sapiens (Human), UniProt Q9NWZ3); conditions: IRAK4, read-out: percent inhibition
MAP2K1, MAP2K2 = tested on: MAP2K1, MAP2K2
LATS2 = LATS2 (Homo sapiens (Human), UniProt Q9NRM7); conditions: LATS2, read-out: percent inhibition
CDK11, CDK8 = tested on: CDK11, CDK8
LRRK2 = LRRK2 (Homo sapiens (Human), UniProt Q5S007); conditions: read-out: percent inhibition
smMLCK = smMLCK (Homo sapiens (Human), UniProt Q15746); conditions: smMLCK, read-out: percent inhibition
p70S6Kb = p70S6Kb (Homo sapiens (Human), UniProt Q9UBS0); conditions: p70S6Kb, read-out: percent inhibition
p38a = p38a (Homo sapiens (Human), UniProt Q16539); conditions: p38a, read-out: percent inhibition
PIP5K3 = PIP5K3 (Homo sapiens (Human), UniProt Q9Y2I7); conditions: PIP5K3, read-out: percent inhibition
FAK = FAK (Homo sapiens (Human), UniProt Q05397); conditions: FAK, read-out: percent inhibition
Wnk1, Wnk2, Wnk3 = tested on: Wnk1, Wnk2, Wnk3
MAP3K4 = MAP3K4 (Homo sapiens (Human), UniProt Q9Y6R4); conditions: MAP3K4, read-out: percent inhibition
GCK = GCK (Homo sapiens (Human), UniProt Q12851); conditions: GCK, read-out: percent inhibition
PIP4K2C = PIP4K2C (Homo sapiens (Human), UniProt Q8TBX8); conditions: read-out: percent inhibition
p70S6K, p70S6Kb = tested on: p70S6K, p70S6Kb
LKB1 = LKB1 (Homo sapiens (Human), UniProt Q15831); conditions: LKB1, read-out: percent inhibition
FER = FER (Homo sapiens (Human), UniProt P16591); conditions: FER, read-out: percent inhibition
SRC = SRC (Homo sapiens (Human), UniProt P12931); conditions: SRC, read-out: percent inhibition
JNK1, JNK2, JNK3 = tested on: JNK1, JNK2, JNK3
OSR1 = OSR1 (Homo sapiens (Human), UniProt O95747); conditions: OSR1, read-out: percent inhibition
TLK2 = TLK2 (Homo sapiens (Human), UniProt Q86UE8); conditions: TLK2, read-out: percent inhibition
ZAK = ZAK (Homo sapiens (Human), UniProt Q9NYL2); conditions: ZAK, read-out: percent inhibition

Sequence of PIP4K2C (Q8TBX8 whole entry): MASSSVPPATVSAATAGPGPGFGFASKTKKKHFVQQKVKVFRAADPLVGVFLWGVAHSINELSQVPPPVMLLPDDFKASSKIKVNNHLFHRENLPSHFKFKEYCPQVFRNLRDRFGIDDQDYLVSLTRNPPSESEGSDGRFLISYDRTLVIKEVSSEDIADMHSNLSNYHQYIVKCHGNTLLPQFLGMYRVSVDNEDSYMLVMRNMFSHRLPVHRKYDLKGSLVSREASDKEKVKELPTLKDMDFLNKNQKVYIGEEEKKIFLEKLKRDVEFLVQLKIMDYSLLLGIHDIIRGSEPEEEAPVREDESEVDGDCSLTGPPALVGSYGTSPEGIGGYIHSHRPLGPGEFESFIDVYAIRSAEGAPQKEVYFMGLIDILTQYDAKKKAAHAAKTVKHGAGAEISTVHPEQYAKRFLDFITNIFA
Sequence of FAK (Q05397 whole entry): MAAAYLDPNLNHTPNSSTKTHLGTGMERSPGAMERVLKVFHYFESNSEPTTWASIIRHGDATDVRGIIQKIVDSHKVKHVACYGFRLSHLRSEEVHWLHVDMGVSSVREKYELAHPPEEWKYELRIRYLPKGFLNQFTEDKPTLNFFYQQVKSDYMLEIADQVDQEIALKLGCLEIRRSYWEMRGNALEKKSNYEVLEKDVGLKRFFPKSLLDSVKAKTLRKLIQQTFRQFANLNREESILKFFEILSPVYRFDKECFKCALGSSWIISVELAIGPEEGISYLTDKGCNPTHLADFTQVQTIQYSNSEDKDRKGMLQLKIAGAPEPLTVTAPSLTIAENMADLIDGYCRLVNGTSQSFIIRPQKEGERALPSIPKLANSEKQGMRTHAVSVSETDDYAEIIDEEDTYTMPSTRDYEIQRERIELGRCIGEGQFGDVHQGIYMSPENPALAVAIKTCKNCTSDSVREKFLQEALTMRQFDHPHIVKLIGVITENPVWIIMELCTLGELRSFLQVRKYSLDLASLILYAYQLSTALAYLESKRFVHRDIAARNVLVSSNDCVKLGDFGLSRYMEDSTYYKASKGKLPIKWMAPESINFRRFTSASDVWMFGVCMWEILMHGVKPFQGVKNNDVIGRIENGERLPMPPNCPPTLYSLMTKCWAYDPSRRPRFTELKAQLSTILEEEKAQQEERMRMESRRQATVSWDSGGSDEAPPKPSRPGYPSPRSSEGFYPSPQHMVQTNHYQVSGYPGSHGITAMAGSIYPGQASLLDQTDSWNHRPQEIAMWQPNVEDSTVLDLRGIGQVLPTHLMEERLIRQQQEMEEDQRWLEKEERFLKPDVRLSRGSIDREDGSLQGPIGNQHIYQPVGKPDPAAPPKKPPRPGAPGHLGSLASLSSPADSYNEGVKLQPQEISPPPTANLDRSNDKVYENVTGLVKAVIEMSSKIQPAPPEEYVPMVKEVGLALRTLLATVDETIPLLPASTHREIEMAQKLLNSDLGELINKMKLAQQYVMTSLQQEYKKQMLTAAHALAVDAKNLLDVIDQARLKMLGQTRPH
Sequence of TLK2 (Q86UE8 whole entry): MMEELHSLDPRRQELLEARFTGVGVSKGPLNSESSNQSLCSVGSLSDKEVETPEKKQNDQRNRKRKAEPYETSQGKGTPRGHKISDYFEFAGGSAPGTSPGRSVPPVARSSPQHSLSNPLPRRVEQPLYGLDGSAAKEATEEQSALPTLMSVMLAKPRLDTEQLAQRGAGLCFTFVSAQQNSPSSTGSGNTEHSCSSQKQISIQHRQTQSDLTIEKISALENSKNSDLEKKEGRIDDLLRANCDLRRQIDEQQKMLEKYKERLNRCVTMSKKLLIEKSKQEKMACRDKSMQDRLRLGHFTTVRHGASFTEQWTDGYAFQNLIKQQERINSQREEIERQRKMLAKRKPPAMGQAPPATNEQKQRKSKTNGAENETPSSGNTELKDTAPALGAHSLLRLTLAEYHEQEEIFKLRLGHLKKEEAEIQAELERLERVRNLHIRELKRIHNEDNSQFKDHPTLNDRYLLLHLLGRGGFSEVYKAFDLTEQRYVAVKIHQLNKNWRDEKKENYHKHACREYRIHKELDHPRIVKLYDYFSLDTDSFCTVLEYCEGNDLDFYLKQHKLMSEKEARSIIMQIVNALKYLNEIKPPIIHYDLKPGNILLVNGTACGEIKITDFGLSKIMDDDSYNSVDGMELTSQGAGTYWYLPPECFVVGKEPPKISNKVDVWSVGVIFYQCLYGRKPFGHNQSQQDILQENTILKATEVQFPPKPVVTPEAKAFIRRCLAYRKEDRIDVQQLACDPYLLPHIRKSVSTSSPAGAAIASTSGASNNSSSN
Sequence of PIP5K3 (Q9Y2I7 whole entry): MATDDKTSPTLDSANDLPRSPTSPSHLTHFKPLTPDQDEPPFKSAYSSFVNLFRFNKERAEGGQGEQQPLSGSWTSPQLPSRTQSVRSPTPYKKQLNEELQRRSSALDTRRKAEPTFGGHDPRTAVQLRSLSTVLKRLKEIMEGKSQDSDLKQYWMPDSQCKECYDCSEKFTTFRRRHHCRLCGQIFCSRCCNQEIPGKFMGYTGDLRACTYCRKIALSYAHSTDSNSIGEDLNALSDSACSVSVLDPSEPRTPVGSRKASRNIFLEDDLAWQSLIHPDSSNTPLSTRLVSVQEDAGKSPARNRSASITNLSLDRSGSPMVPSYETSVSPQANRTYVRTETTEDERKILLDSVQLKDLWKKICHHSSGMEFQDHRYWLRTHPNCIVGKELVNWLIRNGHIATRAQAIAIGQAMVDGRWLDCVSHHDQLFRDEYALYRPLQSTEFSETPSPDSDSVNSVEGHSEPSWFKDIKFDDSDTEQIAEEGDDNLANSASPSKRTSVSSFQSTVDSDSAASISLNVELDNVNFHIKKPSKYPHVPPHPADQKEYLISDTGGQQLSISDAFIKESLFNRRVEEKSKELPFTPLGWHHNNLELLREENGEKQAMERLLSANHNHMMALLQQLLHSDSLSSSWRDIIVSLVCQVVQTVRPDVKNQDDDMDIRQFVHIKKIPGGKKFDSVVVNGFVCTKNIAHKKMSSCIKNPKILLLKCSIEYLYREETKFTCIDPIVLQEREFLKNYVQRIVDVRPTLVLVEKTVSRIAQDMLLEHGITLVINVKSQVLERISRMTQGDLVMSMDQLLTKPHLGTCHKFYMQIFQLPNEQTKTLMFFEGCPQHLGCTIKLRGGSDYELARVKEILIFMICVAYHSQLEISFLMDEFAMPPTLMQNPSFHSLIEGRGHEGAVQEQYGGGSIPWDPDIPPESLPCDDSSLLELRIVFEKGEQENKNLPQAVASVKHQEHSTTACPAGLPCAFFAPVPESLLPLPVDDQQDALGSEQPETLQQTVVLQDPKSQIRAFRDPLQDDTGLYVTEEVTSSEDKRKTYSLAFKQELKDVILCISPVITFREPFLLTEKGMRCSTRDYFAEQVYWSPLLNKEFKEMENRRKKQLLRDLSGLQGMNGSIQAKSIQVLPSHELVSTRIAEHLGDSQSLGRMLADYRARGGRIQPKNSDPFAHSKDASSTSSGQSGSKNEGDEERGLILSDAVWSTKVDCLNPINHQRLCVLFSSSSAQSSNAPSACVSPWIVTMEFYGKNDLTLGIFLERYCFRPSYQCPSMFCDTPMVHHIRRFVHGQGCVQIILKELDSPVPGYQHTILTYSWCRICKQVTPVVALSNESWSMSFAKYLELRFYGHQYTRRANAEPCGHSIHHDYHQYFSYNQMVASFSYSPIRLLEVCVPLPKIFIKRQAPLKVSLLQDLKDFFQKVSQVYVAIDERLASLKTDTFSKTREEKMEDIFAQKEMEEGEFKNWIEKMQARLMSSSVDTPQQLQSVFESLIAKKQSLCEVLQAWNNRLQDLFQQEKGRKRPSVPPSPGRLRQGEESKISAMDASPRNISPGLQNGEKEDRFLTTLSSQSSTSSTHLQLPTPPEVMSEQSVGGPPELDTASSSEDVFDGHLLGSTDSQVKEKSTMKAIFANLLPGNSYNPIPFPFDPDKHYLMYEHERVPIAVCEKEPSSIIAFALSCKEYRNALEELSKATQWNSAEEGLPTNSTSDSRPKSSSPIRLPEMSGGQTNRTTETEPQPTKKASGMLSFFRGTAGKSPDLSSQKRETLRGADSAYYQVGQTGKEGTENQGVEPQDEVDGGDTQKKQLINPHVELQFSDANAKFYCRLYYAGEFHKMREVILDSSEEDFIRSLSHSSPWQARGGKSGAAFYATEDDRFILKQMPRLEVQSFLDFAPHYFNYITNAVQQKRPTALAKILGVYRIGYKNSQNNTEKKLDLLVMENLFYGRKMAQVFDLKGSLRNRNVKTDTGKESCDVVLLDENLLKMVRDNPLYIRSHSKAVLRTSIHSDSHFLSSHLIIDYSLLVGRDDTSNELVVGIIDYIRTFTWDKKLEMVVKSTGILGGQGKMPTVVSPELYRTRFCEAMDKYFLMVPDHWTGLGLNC
Sequence of p70S6K (P23443 whole entry): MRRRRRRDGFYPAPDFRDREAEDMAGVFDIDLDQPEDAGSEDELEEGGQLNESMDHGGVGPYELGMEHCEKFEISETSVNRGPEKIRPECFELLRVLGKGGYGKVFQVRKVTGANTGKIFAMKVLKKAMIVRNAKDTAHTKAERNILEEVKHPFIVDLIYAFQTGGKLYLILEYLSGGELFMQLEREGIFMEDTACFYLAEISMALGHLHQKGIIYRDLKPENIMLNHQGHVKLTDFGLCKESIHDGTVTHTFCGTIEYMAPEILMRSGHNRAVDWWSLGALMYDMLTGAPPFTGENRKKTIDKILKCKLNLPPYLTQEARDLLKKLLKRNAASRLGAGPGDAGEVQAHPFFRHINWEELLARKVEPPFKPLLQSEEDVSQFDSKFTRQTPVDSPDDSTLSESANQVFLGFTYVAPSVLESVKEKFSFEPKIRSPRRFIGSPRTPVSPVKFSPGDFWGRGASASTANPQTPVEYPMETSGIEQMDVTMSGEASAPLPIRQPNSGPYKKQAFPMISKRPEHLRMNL

`Cn1cc(-c2c[nH]c3ncnc(N4CCOCC4)c23)cn1` [Example 1, 5-(1-Methyl-1H-pyrazol-4-yl)-4-(morpholin-4-yl)-7H-pyrrolo[2,3-d]pyrimidine] was tested, and the inhibition at 0.1 µM (SGK3; 0.1 μM) was 2.5%, the inhibition at 1 µM (SGK3; 1 μM) was 9.9% and the inhibition at 0.1 µM (PYK2; 0.1 μM) was 5.9%. For the same compound, the inhibition at 1 µM (PYK2; 1 μM) was 19.5%, the inhibition at 0.1 µM (MAP2K4; 0.1 μM) was 10.1% and the inhibition at 1 µM (MAP2K4; 1 μM) was 9.6%. The inhibition at 0.1 µM (AMPKa1; 0.1 μM) was 1.5%, the inhibition at 1 µM (AMPKa1; 1 μM) was 27% and the inhibition at 0.1 µM (p70S6K; 0.1 μM) was 23%. For the same compound, the inhibition at 1 µM (p70S6K; 1 μM) was 18.9%, the percent inhibition (ABL, ARG; 0.1 μM) was 25.8% and the percent inhibition (ABL, ARG; 1 μM) was 22.5%. The inhibition at 0.1 µM (TBK1; 0.1 μM) was 0.1%, the inhibition at 1 µM (TBK1; 1 μM) was 13.4% and the inhibition at 0.1 µM (PAN3; 0.1 μM) was 0.6%. For the same compound, the inhibition at 1 µM (PAN3; 1 μM) was 0.8%, the inhibition at 0.1 µM (IRAK3; 0.1 μM) was 30.1% and the inhibition at 1 µM (IRAK3; 1 μM) was 68.7%. It also gave an inhibition at 0.1 µM (FYN; 0.1 μM) of 6.7%, an inhibition at 1 µM (FYN; 1 μM) of -10.1% and an inhibition at 0.1 µM (NEK9; 0.1 μM) of -0.9%. The inhibition at 1 µM (NEK9; 1 μM) was 12.6%, the inhibition at 0.1 µM (SYK; 0.1 μM) was -8.9% and the inhibition at 1 µM (SYK; 1 μM) was -6.1%. The inhibition at 0.1 µM (IRAK4; 0.1 μM) was 17.7%, the inhibition at 1 µM (IRAK4; 1 μM) was 34.7% and the percent inhibition (MAP2K1, MAP2K2; 0.1 μM) was 1%. The percent inhibition (MAP2K1, MAP2K2; 1 μM) was −2.2%, the inhibition at 0.1 µM (LATS2; 0.1 μM) was 21.2% and the inhibition at 1 µM (LATS2; 1 μM) was 11%. It also gave a percent inhibition (CDK11, CDK8; 0.1 μM) of 4.4%, a percent inhibition (CDK11, CDK8; 1 μM) of 2.4% and an inhibition at 0.1 µM (LRRK2; 0.1 μM) of 69%. It also gave an inhibition at 1 µM (LRRK2; 1 μM) of 88.1%, an inhibition at 0.1 µM (smMLCK; 0.1 μM) of -11.5% and an inhibition at 1 µM (smMLCK; 1 μM) of -1.9%. The inhibition at 0.1 µM (p70S6Kb; 0.1 μM) was 15%, the inhibition at 1 µM (p70S6Kb; 1 μM) was 10.1% and the inhibition at 0.1 µM (p38a; 0.1 μM) was -23.5%. The inhibition at 1 µM (p38a; 1 μM) was -19.8%, the inhibition at 0.1 µM (PIP5K3; 0.1 μM) was 1.9% and the inhibition at 1 µM (PIP5K3; 1 μM) was 15%. The inhibition at 0.1 µM (FAK; 0.1 μM) was 18%, the inhibition at 1 µM (FAK; 1 μM) was 20% and the percent inhibition (Wnk1, Wnk2, Wnk3; 0.1 μM) was −18.8%. The percent inhibition (Wnk1, Wnk2, Wnk3; 1 μM) was −24%, the inhibition at 0.1 µM (MAP3K4; 0.1 μM) was -14% and the inhibition at 1 µM (MAP3K4; 1 μM) was 6.9%. For the same compound, the inhibition at 0.1 µM (GCK; 0.1 μM) was 4.4%, the inhibition at 1 µM (GCK; 1 μM) was -6.7% and the inhibition at 0.1 µM (PIP4K2C; PIP4K2C (first line of two)) was 1.4%. It also gave an inhibition at 1 µM (PIP4K2C; PIP4K2C (first line of two)) of -1.4%, an inhibition at 0.1 µM (PIP4K2C; PIP4K2C (second line of two)) of -48% and an inhibition at 1 µM (PIP4K2C; PIP4K2C (second line of two)) of 0.9%. It also gave a percent inhibition (p70S6K, p70S6Kb; 0.1 μM) of 9.4%, a percent inhibition (p70S6K, p70S6Kb; 1 μM) of −3.5% and an inhibition at 0.1 µM (LKB1; 0.1 μM) of -1.1%. The inhibition at 1 µM (LKB1; 1 μM) was -14%, the inhibition at 0.1 µM (FER; 0.1 μM) was -7.3% and the inhibition at 1 µM (FER; 1 μM) was -17.9%. The inhibition at 0.1 µM (SRC; 0.1 μM) was 1.5%, the inhibition at 1 µM (SRC; 1 μM) was 9.7% and the percent inhibition (JNK1, JNK2, JNK3; 0.1 μM) was 7.1%. The percent inhibition (JNK1, JNK2, JNK3; 1 μM) was 7.7%, the inhibition at 0.1 µM (OSR1; 0.1 μM) was -7.8% and the inhibition at 1 µM (OSR1; 1 μM) was -4%. The inhibition at 0.1 µM (TLK2; 0.1 μM) was -5.8%, the inhibition at 1 µM (TLK2; 1 μM) was -21.1% and the inhibition at 0.1 µM (ZAK; 0.1 μM) was 15%. It also gave an inhibition at 1 µM (ZAK; 1 μM) of 23.1%.
